Measurements as given in patent publication US20090118264A1, “Medicament having neovascularization promoting action” (Research Foundation Itsuu Laboratory, priority 2005, published 2009).
Where two headings read alike, the source gives them in different places.

What was measured:
[1] = system: rabbit lower extremity ischemia model; experiment: Intramuscular administration to rabbit lower extremity ischemia model, angiography; format: in vivo, rabbits; details: 10^−8 M LE135 solution injected into femoral muscles, 3 times per week; 28th day from the ligature; compared with control group (FIG. 2)
Protocol: The external iliac arteries on one side of rabbits were ligated and separated, and a 10^−8 M LE135 solution was injected into the femoral muscles on the same side to examine the neovascularization effect of the medicament. A solution of an organic solvent alone in the same amount as used for dissolution of LE135 was used as a negative control. The solutions were administered 3 times per week from the next day of the ligature. […] The blood vessels surrounded by the broken lines are considered to be collateral blood routes. In the figure, the white arrows* indicate the common iliac arteries.

[2] = system: mouse lower extremity ischemia model; experiment: Neovascularization experiment using mouse lower extremity ischemia model; format: in vivo, mice (C3H/HeNCrj)
Protocol: The femoral arteries on one side of 24 to 36-week old wild-type male mice (C3H/HeNCrj) were ligated and separated to prepare lower extremity ischemia model mice. […] The blood flow ratio between the affected extremities and the normal extremities was determined by the laser Doppler method on the day before the operation and 1, 3, 4, 5, 7, 9, 12, 14, 16, 18, 21, 24 and 28 days after the operation. […] In order to detect vascular endothelial cells in muscle tissues of the affected extremities on 21st day after the operation, immunostaining was performed by using anti-CD31 (PECAM1) antibodies.

[3] = system: human umbilical vein endothelial cells and human skin fibroblasts; experiment: Neovascularization in co-culture system of human umbilical vein endothelial cells and human skin fibroblasts (Neovascularization Kit), anti-CD31 immunostaining; format: cell-based
Protocol: The effect of LE135 on neovascularization was investigated by using a co-culture system of human umbilical vein endothelial cells and human skin fibroblasts (Neovascularization Kit, Kurabo Industries Ltd.). The vascular endothelial growth factor (VEGF) having a potent neovascularization action, added to 8 wells at a final concentration of 10 ng/ml, was used as positive control. Culture medium alone added to 8 wells without addition of the medicament was used as negative control. LE135 was added to the wells (8 wells for each group) at various concentrations, and culture was performed for 11 days. Immunostaining was performed by using anti-CD31 (PECAM1) antibodies directed to the vascular endothelial cells to determine the areas of luminal structures similar to blood vessels showing positive results and the numbers of branchings as an index of maturity of the formed luminal structures. The luminal structure areas and the numbers of branchings observed in the wells added with the medicament (LE135 or VEGF as the positive control) at various concentrations are shown in Table 1 in terms of relative values based on the luminal structure area and the number of branchings observed in the medicament-free wells as the negative control, which were taken as 100, respectively.
The effects of RAR antagonists other than LE135 on neovascularization were examined by using a co-culture system of human umbilical vein endothelial cells and human skin fibroblasts (Neovascularization Kit, Kurabo Industries Ltd.). The vascular endothelial growth factor (VEGF) having a potent neovascularization action added to wells at a final concentration of […] was used as positive control. Culture medium alone added to wells without addition of the medicament was used as negative control. Each compound was added at a concentration of 10^−9 mol/L, and culture was performed for 11 days. Immunostaining was performed by using anti-CD31 (PECAM1) antibodies directed to vascular endothelial cells to determine the areas of luminal structures similar to blood vessels showing positive results and the numbers of branchings as an index of maturity of the formed luminal structures. The luminal structure areas and the numbers of branchings observed in the wells added with the medicament at each given concentration are shown in the following table in terms of relative values based on the luminal structure area and the number of branchings observed in the medicament-free wells as the negative control, which were taken as 100, respectively.

[4] = Example 4: each compound 10^−9 mol/L, culture 11 days, relative value, negative control taken as 100, mean ± SD (Table 3)
[5] = LE135 10^−9 M, culture 11 days, relative value, negative control taken as 100, mean ± SD (Table 1)
[6] = LE135 10^−10 M, culture 11 days, relative value, negative control taken as 100, mean ± SD
[7] = LE135 10^−11 M, culture 11 days, relative value, negative control taken as 100, mean ± SD

Row | Compound | Formation of collateral blood routes (angiography) [1] | CD31-positive cell count per field (200×) ([2]; mice orally administered with 5 mg/kg of LE135, muscle tissues of affected extremities, 21st day after the operation) | Numbers of endothelial cells (CD31-positive cells), in words ([2]; muscle tissues of affected extremities, 21st day after the operation, compared with no medicament-administered group) | Necrosis or amputation in the lower extremities ([2]; orally 5 mg/kg of LE135, 28th day after the operation, about 30% in no medicament-administered mice) | Blood flow ratio between affected and normal extremities (laser Doppler method) ([2]; orally 5 mg/kg of LE135, up to 28 days after the operation, compared with no medicament-administered mice (FIG. 1)) | Area (luminal structure area) [3, 4] | Number of branchings [3, 4] | Area (luminal structure area) [3, 5] | Number of branching [3, 5] | Area (luminal structure area) [3, 6] | Number of branching [3, 6] | Area (luminal structure area) [3, 7] | Number of branching [3, 7] | Promotion of neovascularization ([3]; concentrations of 10^−10 and 10^−9 M, versus negative control) | Blood vessel luminal structure area (in words) ([3]; Example 4: 10^−9 mol/L, versus negative control) | Number of branching [3] | Number of branchings [3] | Area (luminal structure area) ([3]; Example 4: VEGF final concentration 10 μg/ml, culture 11 days, relative value, negative control taken as 100 (Table 3)) | Area (luminal structure area) ([3]; VEGF final concentration 10 ng/ml, culture 11 days, relative value, negative control taken as 100 (Table 1))
1 | CN1c2cc3c(cc2N=C(c2ccc(C(=O)O)cc2)c2ccccc21)C(C)(C)CCC3(C)C [LE135, 4-(5H-7,8,9,10-tetrahydro-5,7,7,10,10-pentamethylbenzo[e]naphtho[2,3-b][1,4]diazepin-13-yl)benzoic acid] | evidently better formation of collateral blood routes | 21.63 ± 4.12 per field (200×) | significantly higher numbers of endothelial cells | no mouse among the LE135-administered mice was observed to have necrosis or amputation | Significant improvement of the blood flow | 158.73 ± 6.89 | 170.09 ± 14.87 | 112.52 ± 4.68 | 150.31 ± 10.26 | 116.30 ± 5.69 | 137.40 ± 9.48 | 109.09 ± 4.89 | 118.70 ± 9.27 | significantly promoted neovascularization |  |  |  |  | 
2 | CN1c2cc3c(cc2N=C(c2ccc(C(=O)O)cc2)c2ccc4ccccc4c21)C(C)(C)CCC3(C)C [LE540] |  |  |  |  |  | 172.02 ± 22.00 | 195.33 ± 24.49 |  |  |  |  |  |  |  | significantly increased the blood vessel luminal structure area |  |  |  | 
3 | VEGF |  |  |  |  |  |  |  |  |  |  |  |  |  |  |  | 154.20 ± 7.12 | 321.50 ± 42.17 | 202.52 ± 18.40 | 134.88 ± 4.42
